The supplement of paper PMC10307832

Columns and labels:
Assay in all cases: relative viability (nuclei count vs DMSO), 5 days (fraction); higher = more cells survive
[1] = compound: C#Cc1cccc(Nc2ncnc3cc(OCCOC)c(OCCOC)cc23)c1 [Erlotinib] + C[C@]1(O)C[C@@H](c2nc(-c3ccc4ccc(-c5ccccc5)nc4c3)c3c(N)nccn32)C1 [Linsitinib] (partner 1 µM)
Procedure, shortened: (§1)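 Lung cancer cell lines were pin-tool dosed in 1536-well plates on the day after seeding, with either a lone drug or a fixed anchor-drug dose plus five library-drug doses (not always all listed) in √10 steps. Nuclei were counted on 4× images after 5 days. Relative viability is the ratio of treated-well to vehicle-well nuclei counts, with each value a median of duplicate plates.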

[2] = compound: O=C(Nc1c[nH]nc1-c1nc2ccc(CN3CCOCC3)cc2[nH]1)NC1CC1 [AT9283] + CC(=O)Nc1cccc(-n2c(=O)n(C3CC3)c(=O)c3c(Nc4ccc(I)cc4F)n(C)c(=O)c(C)c32)c1 [Trametinib] (partner 0.02 µM)
Procedure, shortened: as §1

[3] = compound: O=C(Nc1c[nH]nc1-c1nc2ccc(CN3CCOCC3)cc2[nH]1)NC1CC1 [AT9283] + CS(=O)(=O)CCNCc1ccc(-c2ccc3ncnc(Nc4ccc(OCc5cccc(F)c5)c(Cl)c4)c3c2)o1 [Lapatinib] (partner 2 µM)
Procedure, shortened: as §1

[4] = compound: O=C(Nc1c[nH]nc1-c1nc2ccc(CN3CCOCC3)cc2[nH]1)NC1CC1 [AT9283] + Cc1nc(Nc2ncc(C(=O)Nc3c(C)cccc3Cl)s2)cc(N2CCN(CCO)CC2)n1 [Dasatinib] (partner 0.075 µM)
Procedure, shortened: as §1

[5] = compound: O=C(Nc1c[nH]nc1-c1nc2ccc(CN3CCOCC3)cc2[nH]1)NC1CC1 [AT9283] + NC(=O)Nc1cc(-c2cccc(F)c2)sc1C(=O)N[C@H]1CCCNC1 [AZD7762] (partner 0.2 µM)
Procedure, shortened: as §1

Row | Cell Line | relative viability ([1]; first compound 0.02 µM) | relative viability ([1]; first compound 0.2 µM) | relative viability ([1]; first compound 0.6325 µM) | relative viability ([1]; first compound 2 µM) | relative viability ([2]; first compound 0.003 µM) | relative viability ([2]; first compound 0.03 µM) | relative viability ([2]; first compound 0.09487 µM) | relative viability ([2]; first compound 0.3 µM) | relative viability ([3]; first compound 0.003 µM) | relative viability ([3]; first compound 0.03 µM) | relative viability ([3]; first compound 0.09487 µM) | relative viability ([3]; first compound 0.3 µM) | relative viability ([4]; first compound 0.003 µM) | relative viability ([4]; first compound 0.03 µM) | relative viability ([4]; first compound 0.09487 µM) | relative viability ([4]; first compound 0.3 µM) | relative viability ([5]; first compound 0.003 µM) | relative viability ([5]; first compound 0.03 µM) | relative viability ([5]; first compound 0.09487 µM) | relative viability ([5]; first compound 0.3 µM)
1 | EPLC-272H | 1.11 | 1.18 | 1.06 | 0.802 | 0.285 | 0.287 | 0.161 | 0.152 | 0.854 | 0.975 | 0.319 | 0.137 | 0.342 | 0.307 | 0.106 | 0.103 | 0.139 | 0.23 | 0.104 | 0.144
2 | HCC-15 | 0.927 | 0.922 | 1 | – | 0.377 | 0.381 | 0.178 | 0.149 | 0.745 | 0.37 | 0.159 | 0.142 | 0.587 | 0.221 | 0.112 | 0.112 | 1.26 | 1.19 | 0.926 | 0.255
3 | EKVX | 0.941 | 0.395 | 0.235 | 0.117 | 0.361 | 0.345 | 0.32 | 0.191 | 0.241 | 0.188 | 0.128 | 0.108 | 0.501 | 0.413 | 0.241 | 0.195 | 0.647 | 0.56 | 0.584 | 0.289
4 | NCI-H596 | 1.03 | 0.939 | 1.02 | 0.789 | 0.76 | 0.868 | 0.566 | 0.635 | 0.845 | 0.884 | 0.623 | 0.404 | 0.59 | 0.597 | 0.565 | 0.297 | 1.01 | 1.2 | 0.976 | 0.595
5 | LK-2 | 0.557 | 0.43 | 0.869 | 0.377 | 0.746 | 0.759 | 0.195 | 0.194 | 0.788 | 0.26 | 0.198 | 0.181 | 0.228 | 0.197 | 0.135 | 0.142 | 0.344 | 0.109 | 0.0946 | 0.0986
6 | NCI-H460 | 0.804 | 0.647 | – | 0.712 | 0.143 | 0.215 | 0.0758 | 0.0307 | 1.05 | 0.0247 | 0.0158 | 0.0301 | 0.395 | 0.495 | 0.265 | 0.0688 | 0.543 | 0.687 | 0.131 | 0.11
7 | NCI-H1793 | 0.785 | 0.397 | 0.767 | 0.651 | 0.389 | 0.342 | 0.292 | 0.259 | 0.743 | 0.273 | 0.16 | 0.256 | 0.405 | 0.39 | 0.256 | 0.138 | 0.564 | 0.495 | 0.233 | 0.185
8 | NCI-H1437 | 1.05 | 0.941 | 0.83 | 0.526 | 0.547 | 0.568 | 0.302 | 0.14 | 0.702 | 0.246 | 0.157 | 0.155 | 0.342 | 0.379 | 0.224 | 0.114 | 1.11 | 0.98 | 0.431 | 0.291
9 | HCC-366 | 0.752 | 0.52 | 0.574 | 0.564 | 0.349 | 0.256 | 0.173 | 0.0874 | 1.01 | 0.0702 | 0.0449 | 0.0374 | 0.619 | 0.566 | 0.104 | 0.053 | 0.209 | 0.485 | 0.0684 | 0.0719
10 | NCI-H2087 | 1.03 | 1.14 | 1.06 | 0.828 | 0.176 | 0.096 | 0.124 | 0.107 | 0.894 | 0.269 | 0.222 | 0.186 | 0.765 | 0.309 | 0.122 | 0.0986 | 1.35 | 0.686 | 0.348 | 0.244
11 | LU99A | 0.616 | 0.497 | 0.457 | 0.446 | 0.539 | 0.327 | 0.178 | 0.217 | 0.846 | 0.357 | 0.188 | 0.207 | 0.546 | 0.195 | 0.229 | 0.247 | 0.457 | 0.137 | 0.139 | 0.148
12 | NCI-H1993 | 0.763 | – | 0.728 | 0.85 | 0.541 | 0.529 | 0.445 | 0.433 | 0.813 | 0.672 | 0.631 | 0.632 | 0.618 | 0.557 | 0.462 | 0.448 | 0.822 | 0.745 | 0.469 | 0.326
13 | NCI-H2347 | 1.03 | 1.04 | – | 0.834 | 0.292 | 0.269 | 0.275 | 0.262 | 0.894 | 0.866 | 0.571 | 0.501 | 0.342 | 0.313 | 0.26 | 0.223 | 0.781 | 0.676 | 0.324 | 0.341
14 | NCI-H1734 | 0.946 | 0.849 | 0.966 | 0.776 | 0.7 | 0.406 | 0.267 | 0.271 | 0.988 | 0.687 | 0.291 | 0.249 | 0.332 | 0.301 | 0.187 | 0.158 | 0.533 | 0.274 | 0.225 | 0.245
15 | LCLC-97TM1 | 0.212 | – | 0.196 | 0.196 | 0.203 | 0.159 | 0.119 | 0.123 | 0.746 | 0.15 | 0.129 | 0.126 | 0.798 | 0.492 | 0.255 | 0.162 | 0.305 | 0.102 | 0.0858 | 0.0762
16 | HOP-62 | 1.14 | 0.959 | 1.01 | 0.912 | 0.384 | 0.431 | 0.194 | 0.188 | 1.06 | 0.984 | 0.47 | 0.176 | 0.666 | 0.58 | 0.295 | 0.186 | 0.561 | 0.143 | 0.161 | 0.199
